Consider 7 compounds from PubChem BioAssay (NCI).

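Assay format: 96-well plates, 48-hour exposure. GI50 = concentration required for 50% inhibition of growth. TGI is the concentration that stops growth completely.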

Common to all, as to assay: inhibition of tumour cell growth, NCI panel, 48 h
The test system of assay [1] is 786-0 renal.
For assay [2], the system named is A549 NSCLC.
Assay [3] deals with BT-549 breast.
Assay [4] has as its system CAKI-1 renal.
The test system of assay [5] is CCRF-CEM leukemia.
In assay [6] the test system is HCT-15 colon.
Assay [7] deals with K-562 leukemia.
Assay [8] concerns MDA-MB-231 breast.
Assay [9] concerns NCI-H226 lung.
Assay [10] has as its system OVCAR-5 ovarian.

As to `O=[N+]([O-])c1c(Br)sc(Br)c1[N+](=O)[O-]`, the GI50 in assay [1] is 1.73 µM; in assay [2] it was 13.7 µM; in [3], 16.1 µM; in assay [4] it was 1.83 µM; in [5], 1.11 µM; in assay [6], 1.59 µM. Moreover, the GI50 is 0.815 µM in assay [7], 2.32 µM in [8], 3.18 µM in assay [9] and 2.46 µM in assay [10]. Moreover, the TGI in assay [1] is 3.25 µM; in assay [2], 41.5 µM; in [3] it was 29.7 µM; in assay [4] it was 3.63 µM; in assay [5], 4.15 µM; in [6], 4.48 µM. In addition, the TGI in [7] was 3.99 µM; in assay [8], 6.19 µM; in assay [9], 13.3 µM; in [10], 6.95 µM.

As to `Nc1nc(-c2ccccc2)nc(N)c1N=O`, the GI50 is 13.2 µM in assay [1]; 8.86 µM in assay [2]; 6.44 µM in assay [3]; 4.5 µM in assay [4]; 5.8 µM in assay [5]; 3.03 µM in assay [6]. Further, the GI50 was 5.09 µM in assay [7], 12.6 µM in assay [8], 4.87 µM in assay [9] and 13.7 µM in assay [10]. The TGI in assay [1] was 27.1 µM; in [2] it was 23.3 µM; in assay [3] it was 19.1 µM; in assay [4], 36.3 µM; in assay [5], over 100 µM; in [6], 11.1 µM. Further, the TGI in assay [7] was found to be 72.3 µM; in [8], 28.9 µM; in assay [9], 21.2 µM; in assay [10] it was 26.8 µM.

In the case of `COc1ccc(Nc2c3ccccc3nc3ccccc23)cc1`, the GI50 in assay [1] is 3.85 µM; in assay [2], 0.809 µM; in assay [3] it was 5.99 µM; in assay [4], 1.21 µM; in assay [5] it was 1.17 µM; in [6] it was 1.08 µM. In addition, the GI50 in assay [7] is 0.583 µM; in [8], 2.58 µM; in assay [9], 1.2 µM; in assay [10] it was 6.15 µM. Also, the TGI turned out to be 16.7 µM in assay [1]; 11 µM in assay [2]; 23.6 µM in [3]; 10.4 µM in assay [4]; 10.7 µM in [5]; 15.5 µM in assay [6]. The TGI came out at 7.19 µM in assay [7], 19.3 µM in [8], 3.84 µM in assay [9] and 23 µM in [10].

`CC(=Nc1ccccc1)C1=C(O)C(Cc2ccccc2)NC1=O` (centres undefined): the GI50 was 0.0586 µM in [1]; 0.052 µM in [2]; 0.0578 µM in [3]; 0.0299 µM in assay [4]; 0.0431 µM in assay [5]; 0.0425 µM in [6]. For the same compound, the GI50 was 0.0203 µM in assay [7], 0.224 µM in assay [8], 0.244 µM in [9] and 0.0938 µM in assay [10]. Besides, the TGI in assay [2] is over 100 µM; in assay [3] it was 0.501 µM; in [4], over 76.4 µM; in assay [5] it was over 100 µM; in assay [6] it was over 48.1 µM; in assay [7] it was over 100 µM. Further, the TGI in [8], in assay [9] and in assay [10] was over 100 µM in each case.

As to `CC[C@@H](C(=O)[C@@H](C)[C@@H](O)[C@H](C)[C@@H]1O[C@@H]([C@@H](CC)C(=O)N(CC)CC)CC[C@@H]1C)C1O[C@]2(C=CC(=O)[C@]3(CC[C@@](C)([C@H]4CC[C@](O)(CC)[C@H](C)O4)O3)O2)[C@H](C)C[C@@H]1C` (some centres undefined), the GI50 in [1] is 3.22 µM; in assay [2], 3.21 µM; in assay [3], 3.29 µM; in assay [4], 2.18 µM; in assay [5], 3.01 µM; in [6], 2.02 µM. Further, the GI50 in [7] is 2.89 µM; in assay [8], 1.69 µM; in [9], 2.21 µM; in [10], 2.85 µM. In addition, the TGI in assay [1] is 15.9 µM; in [2], over 100 µM; in assay [3] it was 61.9 µM; in assay [4], 13.5 µM; in assay [5] it was 14.4 µM; in assay [6], 4.51 µM. The TGI in assay [7] was over 100 µM; in [8], 3.33 µM; in [9] it was 6.71 µM; in assay [10] it was 10.1 µM.

For the compound `CC(C)CCN=C(N)c1ccc(N2CCN(c3ccc(C(N)=NCCC(C)C)cc3)CC2)cc1`, the GI50 is 6.58 µM in assay [1]; 7.61 µM in [2]; 0.474 µM in assay [3]; 31.4 µM in assay [4]; 6.37 µM in [5]; 37.6 µM in [6]. Moreover, the GI50 in [7] is 2.09 µM; in assay [8] it was 20.6 µM; in assay [9], 17.9 µM; in [10], 38.5 µM. Moreover, the TGI in [1] is 38 µM; in assay [2], over 100 µM; in assay [3], 3.1 µM; in [4], over 100 µM; in [5], 26.4 µM; in assay [6], over 100 µM. Besides, the TGI in [7] was over 100 µM; in assay [8], 52.7 µM; in assay [9] it was 46.8 µM; in assay [10], over 100 µM.

With `COc1cc2c(cc1C)NC(=O)/C2=C\c1cccc(Oc2ccccc2)c1`, the GI50 in [1] is 13.2 µM; in [2], 20.6 µM; in [3], 12.8 µM; in assay [4], 19.4 µM; in [5], 6.85 µM; in assay [6] it was 13.3 µM. The GI50 is 9.83 µM in [7], 16.3 µM in assay [8], 21 µM in assay [9] and 17 µM in assay [10]. For the same compound, the TGI is 25.9 µM in assay [1]; over 100 µM in [2]; 27.9 µM in assay [3]; 41.2 µM in [4]; 24.5 µM in assay [5]; 26.2 µM in assay [6]. Besides, the TGI in assay [7] worked out at 39.1 µM; in [8], 37.4 µM; in [9], 38.1 µM; in assay [10], 32.4 µM.
